PubChem BioAssay AID504381 (The Scripps Research Institute Molecular Screening Center, 2011)
Activity calls are given as the source filed them. How the calls were made is not given here.

How the values were obtained:
Assay in all cases: radioligand displacement at receptors and transporters – biochemical, PDSP panel, Set 2, late-stage follow-up (AID 504381)
[1] = target: 5-hydroxytryptamine receptor 2B (Homo sapiens) (UniProt P41595); conditions: PDSP radioligand binding panel, Serotonin receptor 5ht2b, at 10 µM, stronger effect = higher value
[2] = test system: Adrenergic receptor Alpha1A; conditions: PDSP radioligand binding panel, at 10 µM, stronger effect = higher value
[3] = test system: Adrenergic receptor Alpha1B; conditions: PDSP radioligand binding panel, at 10 µM, stronger effect = higher value
[4] = test system: Adrenergic receptor Alpha1D; conditions: PDSP radioligand binding panel, at 10 µM, stronger effect = higher value
[5] = test system: Adrenergic receptor Beta1; conditions: PDSP radioligand binding panel, at 10 µM, stronger effect = higher value
[6] = test system: Adrenergic receptor Beta3; conditions: PDSP radioligand binding panel, at 10 µM, stronger effect = higher value
[7] = target: Beta-2 adrenergic receptor (Homo sapiens) (UniProt P07550); conditions: PDSP radioligand binding panel, Adrenergic receptor Beta2, at 10 µM, stronger effect = higher value
[8] = test system: Biogenic amine transporter DAT; conditions: PDSP radioligand binding panel, at 10 µM, stronger effect = higher value
[9] = test system: Biogenic amine transporter NET; conditions: PDSP radioligand binding panel, at 10 µM, stronger effect = higher value
[10] = test system: Biogenic amine transporter SERT; conditions: PDSP radioligand binding panel, at 10 µM, stronger effect = higher value
[11] = target: D(1A) dopamine receptor (Homo sapiens) (UniProt P21728); conditions: PDSP radioligand binding panel, Dopamine receptor D1, at 10 µM, stronger effect = higher value
[12] = target: D(1B) dopamine receptor (Homo sapiens) (UniProt P21918); conditions: PDSP radioligand binding panel, Dopamine receptor D5, at 10 µM, stronger effect = higher value
[13] = target: D(3) dopamine receptor (Homo sapiens) (UniProt P35462); conditions: PDSP radioligand binding panel, Dopamine receptor D3, at 10 µM, stronger effect = higher value
[14] = target: Delta-type opioid receptor (Homo sapiens) (UniProt P41143); conditions: PDSP radioligand binding panel, Opioid receptor DOR, at 10 µM, stronger effect = higher value
Dopamine receptor D2 = conditions: PDSP radioligand binding panel, at 10 µM, stronger effect = higher value
Dopamine receptor D4 = conditions: PDSP radioligand binding panel, at 10 µM, stronger effect = higher value
GABA receptor GABAa = conditions: PDSP radioligand binding panel, at 10 µM, stronger effect = higher value
Histamine receptor H1 = conditions: PDSP radioligand binding panel, at 10 µM, stronger effect = higher value
Histamine receptor H2 = conditions: PDSP radioligand binding panel, at 10 µM, stronger effect = higher value
Histamine receptor H3 = conditions: PDSP radioligand binding panel, at 10 µM, stronger effect = higher value
Histamine receptor H4 = conditions: PDSP radioligand binding panel, at 10 µM, stronger effect = higher value
[15] = target: Kappa-type opioid receptor (Homo sapiens) (UniProt P41145); conditions: PDSP radioligand binding panel, Opioid receptor KOR, at 10 µM, stronger effect = higher value
[16] = target: Muscarinic acetylcholine receptor M1 (Homo sapiens) (UniProt P11229); conditions: PDSP radioligand binding panel, at 10 µM, stronger effect = higher value
[17] = target: Muscarinic acetylcholine receptor M2 (Homo sapiens) (UniProt P08172); conditions: PDSP radioligand binding panel, at 10 µM, stronger effect = higher value
[18] = target: Muscarinic acetylcholine receptor M3 (Homo sapiens) (UniProt P20309); conditions: PDSP radioligand binding panel, at 10 µM, stronger effect = higher value
Muscarinic receptor M4 = conditions: PDSP radioligand binding panel, at 10 µM, stronger effect = higher value
Muscarinic receptor M5 = conditions: PDSP radioligand binding panel, at 10 µM, stronger effect = higher value
Opioid receptor MOR = conditions: PDSP radioligand binding panel, at 10 µM, stronger effect = higher value
Serotonin receptor 5ht1a = conditions: PDSP radioligand binding panel, at 10 µM, stronger effect = higher value
Serotonin receptor 5ht1b = conditions: PDSP radioligand binding panel, at 10 µM, stronger effect = higher value
Serotonin receptor 5ht1d = conditions: PDSP radioligand binding panel, at 10 µM, stronger effect = higher value
Serotonin receptor 5ht1e = conditions: PDSP radioligand binding panel, at 10 µM, stronger effect = higher value
Serotonin receptor 5ht2a = conditions: PDSP radioligand binding panel, at 10 µM, stronger effect = higher value
Serotonin receptor 5ht2c = conditions: PDSP radioligand binding panel, at 10 µM, stronger effect = higher value
Serotonin receptor 5ht3 = conditions: PDSP radioligand binding panel, at 10 µM, stronger effect = higher value
Serotonin receptor 5ht5a = conditions: PDSP radioligand binding panel, at 10 µM, stronger effect = higher value
Serotonin receptor 5ht6 = conditions: PDSP radioligand binding panel, at 10 µM, stronger effect = higher value
Serotonin receptor 5ht7 = conditions: PDSP radioligand binding panel, at 10 µM, stronger effect = higher value
Sigma receptor 1 = conditions: PDSP radioligand binding panel, at 10 µM, stronger effect = higher value

Sequence of Muscarinic acetylcholine receptor M3 (Homo sapiens) (P20309 whole entry, looked up): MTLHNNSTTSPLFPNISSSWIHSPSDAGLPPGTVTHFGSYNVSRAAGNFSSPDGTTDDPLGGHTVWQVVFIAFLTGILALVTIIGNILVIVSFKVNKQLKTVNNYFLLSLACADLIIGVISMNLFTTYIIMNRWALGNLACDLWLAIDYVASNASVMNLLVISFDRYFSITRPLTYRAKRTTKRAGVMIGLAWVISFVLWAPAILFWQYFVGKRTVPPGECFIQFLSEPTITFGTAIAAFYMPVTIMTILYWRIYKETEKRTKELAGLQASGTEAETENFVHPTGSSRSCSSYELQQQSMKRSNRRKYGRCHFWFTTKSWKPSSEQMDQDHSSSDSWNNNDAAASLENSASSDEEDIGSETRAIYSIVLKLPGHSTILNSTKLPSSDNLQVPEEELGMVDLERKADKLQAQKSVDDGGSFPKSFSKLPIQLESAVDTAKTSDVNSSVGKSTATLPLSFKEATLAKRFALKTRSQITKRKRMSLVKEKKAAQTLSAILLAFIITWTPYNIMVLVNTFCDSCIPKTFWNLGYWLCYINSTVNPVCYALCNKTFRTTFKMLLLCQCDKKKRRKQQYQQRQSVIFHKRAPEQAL
Sequence of Muscarinic acetylcholine receptor M2 (Homo sapiens) (P08172 whole entry, looked up): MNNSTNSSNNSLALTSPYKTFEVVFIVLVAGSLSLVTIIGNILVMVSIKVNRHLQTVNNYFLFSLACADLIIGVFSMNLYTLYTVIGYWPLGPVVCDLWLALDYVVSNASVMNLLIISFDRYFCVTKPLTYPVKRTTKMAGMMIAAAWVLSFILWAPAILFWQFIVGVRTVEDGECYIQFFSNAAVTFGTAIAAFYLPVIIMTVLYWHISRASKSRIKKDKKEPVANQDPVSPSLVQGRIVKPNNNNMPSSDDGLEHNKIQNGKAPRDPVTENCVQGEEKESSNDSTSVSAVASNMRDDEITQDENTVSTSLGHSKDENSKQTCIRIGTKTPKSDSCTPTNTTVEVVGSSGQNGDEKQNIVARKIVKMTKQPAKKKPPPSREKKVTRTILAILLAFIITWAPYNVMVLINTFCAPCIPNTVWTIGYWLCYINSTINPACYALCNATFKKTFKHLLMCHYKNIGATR
Sequence of D(1A) dopamine receptor (Homo sapiens) (P21728 whole entry, looked up): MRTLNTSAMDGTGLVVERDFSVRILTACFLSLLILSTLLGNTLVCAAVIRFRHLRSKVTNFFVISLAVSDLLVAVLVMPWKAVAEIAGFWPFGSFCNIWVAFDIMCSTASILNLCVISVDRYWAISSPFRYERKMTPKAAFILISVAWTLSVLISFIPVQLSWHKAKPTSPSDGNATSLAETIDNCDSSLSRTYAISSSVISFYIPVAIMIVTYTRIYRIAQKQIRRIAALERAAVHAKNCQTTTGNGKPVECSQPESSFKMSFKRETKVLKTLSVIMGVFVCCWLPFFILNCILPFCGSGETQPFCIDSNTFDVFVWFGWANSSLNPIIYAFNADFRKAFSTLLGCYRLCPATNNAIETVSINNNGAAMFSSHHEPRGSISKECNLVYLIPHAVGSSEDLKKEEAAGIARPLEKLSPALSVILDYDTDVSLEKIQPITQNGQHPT
Sequence of Delta-type opioid receptor (Homo sapiens) (P41143 whole entry, looked up): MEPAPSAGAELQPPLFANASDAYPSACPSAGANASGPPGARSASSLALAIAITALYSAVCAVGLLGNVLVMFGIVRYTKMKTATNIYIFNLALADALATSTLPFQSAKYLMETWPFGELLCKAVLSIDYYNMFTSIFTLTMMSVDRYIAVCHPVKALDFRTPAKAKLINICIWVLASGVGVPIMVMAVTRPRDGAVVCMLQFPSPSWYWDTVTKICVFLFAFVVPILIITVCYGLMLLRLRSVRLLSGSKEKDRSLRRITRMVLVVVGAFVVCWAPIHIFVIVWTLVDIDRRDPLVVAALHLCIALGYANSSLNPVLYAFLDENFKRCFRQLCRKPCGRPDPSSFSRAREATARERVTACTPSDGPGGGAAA
Sequence of D(3) dopamine receptor (Homo sapiens) (P35462 whole entry, looked up): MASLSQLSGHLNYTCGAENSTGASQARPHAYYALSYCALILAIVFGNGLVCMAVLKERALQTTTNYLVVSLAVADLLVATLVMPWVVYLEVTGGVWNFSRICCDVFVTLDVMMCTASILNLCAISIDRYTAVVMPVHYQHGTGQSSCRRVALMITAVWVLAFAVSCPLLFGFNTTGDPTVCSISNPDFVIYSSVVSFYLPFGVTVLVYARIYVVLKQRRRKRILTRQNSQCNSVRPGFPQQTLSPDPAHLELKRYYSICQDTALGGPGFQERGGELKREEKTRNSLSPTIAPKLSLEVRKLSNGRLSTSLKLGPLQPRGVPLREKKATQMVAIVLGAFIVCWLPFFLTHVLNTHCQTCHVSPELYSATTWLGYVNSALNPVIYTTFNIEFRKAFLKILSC
Sequence of D(1B) dopamine receptor (Homo sapiens) (P21918 whole entry, looked up): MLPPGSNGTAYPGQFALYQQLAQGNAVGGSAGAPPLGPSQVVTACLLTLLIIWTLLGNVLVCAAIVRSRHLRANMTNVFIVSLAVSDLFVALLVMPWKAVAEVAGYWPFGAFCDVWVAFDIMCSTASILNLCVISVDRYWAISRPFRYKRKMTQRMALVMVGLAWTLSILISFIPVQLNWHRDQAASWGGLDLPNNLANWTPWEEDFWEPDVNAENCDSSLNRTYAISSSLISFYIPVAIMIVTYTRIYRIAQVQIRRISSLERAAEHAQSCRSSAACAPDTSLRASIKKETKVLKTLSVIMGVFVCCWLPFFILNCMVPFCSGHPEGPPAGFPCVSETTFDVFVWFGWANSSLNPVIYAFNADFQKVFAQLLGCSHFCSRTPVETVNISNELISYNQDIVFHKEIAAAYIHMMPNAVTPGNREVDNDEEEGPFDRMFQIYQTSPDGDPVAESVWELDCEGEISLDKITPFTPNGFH
Sequence of Kappa-type opioid receptor (Homo sapiens) (P41145 whole entry, looked up): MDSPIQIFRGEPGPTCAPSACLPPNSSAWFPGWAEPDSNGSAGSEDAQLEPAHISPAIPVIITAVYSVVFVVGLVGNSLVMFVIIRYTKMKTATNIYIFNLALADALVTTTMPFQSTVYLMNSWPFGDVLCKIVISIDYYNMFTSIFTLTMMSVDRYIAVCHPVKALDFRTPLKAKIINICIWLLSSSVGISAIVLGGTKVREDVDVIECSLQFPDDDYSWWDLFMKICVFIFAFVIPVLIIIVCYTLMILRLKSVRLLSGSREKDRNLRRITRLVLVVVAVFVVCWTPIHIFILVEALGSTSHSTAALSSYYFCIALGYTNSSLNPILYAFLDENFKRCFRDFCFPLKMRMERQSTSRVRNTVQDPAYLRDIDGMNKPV
Sequence of 5-hydroxytryptamine receptor 2B (Homo sapiens) (P41595 whole entry, looked up): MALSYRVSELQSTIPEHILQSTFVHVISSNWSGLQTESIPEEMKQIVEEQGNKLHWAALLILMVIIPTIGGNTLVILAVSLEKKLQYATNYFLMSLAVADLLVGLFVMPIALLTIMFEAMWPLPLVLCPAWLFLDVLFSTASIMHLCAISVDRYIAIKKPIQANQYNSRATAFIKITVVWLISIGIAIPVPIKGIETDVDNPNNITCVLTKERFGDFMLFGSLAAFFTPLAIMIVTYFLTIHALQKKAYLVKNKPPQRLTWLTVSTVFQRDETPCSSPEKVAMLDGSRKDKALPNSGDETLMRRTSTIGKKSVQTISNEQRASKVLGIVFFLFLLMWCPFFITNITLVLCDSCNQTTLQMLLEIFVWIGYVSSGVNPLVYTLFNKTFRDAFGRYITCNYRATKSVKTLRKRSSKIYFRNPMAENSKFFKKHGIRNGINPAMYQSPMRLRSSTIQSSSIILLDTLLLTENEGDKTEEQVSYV
Sequence of Muscarinic acetylcholine receptor M1 (Homo sapiens) (P11229 whole entry, looked up): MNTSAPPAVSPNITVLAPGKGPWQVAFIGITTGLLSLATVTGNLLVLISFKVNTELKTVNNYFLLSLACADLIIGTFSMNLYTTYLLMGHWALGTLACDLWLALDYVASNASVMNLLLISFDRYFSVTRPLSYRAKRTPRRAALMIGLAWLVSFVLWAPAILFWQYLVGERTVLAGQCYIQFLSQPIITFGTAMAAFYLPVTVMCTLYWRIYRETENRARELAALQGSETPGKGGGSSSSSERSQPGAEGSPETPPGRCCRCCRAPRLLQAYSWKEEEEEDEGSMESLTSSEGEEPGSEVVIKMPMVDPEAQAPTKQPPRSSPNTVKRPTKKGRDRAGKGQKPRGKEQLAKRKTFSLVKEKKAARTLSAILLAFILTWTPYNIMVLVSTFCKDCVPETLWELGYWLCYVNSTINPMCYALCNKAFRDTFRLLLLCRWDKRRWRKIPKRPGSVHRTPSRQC
Sequence of Beta-2 adrenergic receptor (Homo sapiens) (P07550 whole entry, looked up): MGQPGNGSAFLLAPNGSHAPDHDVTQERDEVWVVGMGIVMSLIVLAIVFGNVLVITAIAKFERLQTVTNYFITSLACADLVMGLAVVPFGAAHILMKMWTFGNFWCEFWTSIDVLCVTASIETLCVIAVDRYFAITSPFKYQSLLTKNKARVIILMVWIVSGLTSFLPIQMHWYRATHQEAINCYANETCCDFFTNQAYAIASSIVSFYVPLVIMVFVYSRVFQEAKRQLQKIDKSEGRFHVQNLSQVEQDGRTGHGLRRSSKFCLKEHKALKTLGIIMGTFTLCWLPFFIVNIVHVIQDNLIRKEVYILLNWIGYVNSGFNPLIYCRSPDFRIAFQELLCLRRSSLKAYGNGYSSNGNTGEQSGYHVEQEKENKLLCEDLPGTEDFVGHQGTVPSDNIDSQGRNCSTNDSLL

- inhibition [1]: 78.9%
- inhibition [2]: -2.9% (inactive)
- inhibition [3]: 9% (inactive)
- inhibition [4]: 17.9% (inactive)
- inhibition [5]: 2.6% (inactive)
- inhibition [6]: -13.9% (inactive)
- inhibition [7]: 11.4% (inactive)
- inhibition [8]: 29.1% (inactive)
- inhibition [9]: 74.1% (inactive)
- inhibition [10]: 8.8% (inactive)
- inhibition [11]: 13.9% (inactive)
- inhibition [12]: 38.7% (inactive)
- inhibition [13]: 97.3%
- inhibition [14]: 0.8% (inactive)
- inhibition (Dopamine receptor D2): -1.5% (inactive)
- inhibition (Dopamine receptor D4): 0.9% (inactive)
- inhibition (GABA receptor GABAa): 28.7% (inactive)
- inhibition (Histamine receptor H1): 35.7% (inactive)
- inhibition (Histamine receptor H2): 9.9% (inactive)
- inhibition (Histamine receptor H3): 4% (inactive)
- inhibition (Histamine receptor H4): -16% (inactive)
- inhibition [15]: 102%
- inhibition [16]: -14.2% (inactive)
- inhibition [17]: -6.7% (inactive)
- inhibition [18]: -0.4% (inactive)
- inhibition (Muscarinic receptor M4): -9.4% (inactive)
- inhibition (Muscarinic receptor M5): 10.5% (inactive)
- inhibition (Opioid receptor MOR): 16.6% (inactive)
- inhibition (Serotonin receptor 5ht1a): 21.4% (inactive)
- inhibition (Serotonin receptor 5ht1b): 5.8% (inactive)
- inhibition (Serotonin receptor 5ht1d): 15.3% (inactive)
- inhibition (Serotonin receptor 5ht1e): -36.5% (inactive)
- inhibition (Serotonin receptor 5ht2a): 0.5% (inactive)
- inhibition (Serotonin receptor 5ht2c): 31.5% (inactive)
- inhibition (Serotonin receptor 5ht3): 7.8% (inactive)
- inhibition (Serotonin receptor 5ht5a): -7.7% (inactive)
- inhibition (Serotonin receptor 5ht6): 3.5% (inactive)
- inhibition (Serotonin receptor 5ht7): -19% (inactive)
- inhibition (Sigma receptor 1): 6.3% (inactive)
Compound: CC(=O)c1ccc2c(c1)Nc1ccccc1S2
